The values that follow come from PMC2099433, “The binding site for neohesperidin dihydrochalcone at the human sweet taste receptor” (BMC Structural Biology, 2007).

In assay [1] the target is T1, hTAS1R2 + hTAS1R3 T724L^5.37 (Homo sapiens, UniProt Q7RTX0+Q8TE23, T724L).
T1 construct: expressed in transfected cells; host or cells: HEK293T cells stably expressing G16Gust44
T1 sequence (Q7RTX0 21-852 T724L): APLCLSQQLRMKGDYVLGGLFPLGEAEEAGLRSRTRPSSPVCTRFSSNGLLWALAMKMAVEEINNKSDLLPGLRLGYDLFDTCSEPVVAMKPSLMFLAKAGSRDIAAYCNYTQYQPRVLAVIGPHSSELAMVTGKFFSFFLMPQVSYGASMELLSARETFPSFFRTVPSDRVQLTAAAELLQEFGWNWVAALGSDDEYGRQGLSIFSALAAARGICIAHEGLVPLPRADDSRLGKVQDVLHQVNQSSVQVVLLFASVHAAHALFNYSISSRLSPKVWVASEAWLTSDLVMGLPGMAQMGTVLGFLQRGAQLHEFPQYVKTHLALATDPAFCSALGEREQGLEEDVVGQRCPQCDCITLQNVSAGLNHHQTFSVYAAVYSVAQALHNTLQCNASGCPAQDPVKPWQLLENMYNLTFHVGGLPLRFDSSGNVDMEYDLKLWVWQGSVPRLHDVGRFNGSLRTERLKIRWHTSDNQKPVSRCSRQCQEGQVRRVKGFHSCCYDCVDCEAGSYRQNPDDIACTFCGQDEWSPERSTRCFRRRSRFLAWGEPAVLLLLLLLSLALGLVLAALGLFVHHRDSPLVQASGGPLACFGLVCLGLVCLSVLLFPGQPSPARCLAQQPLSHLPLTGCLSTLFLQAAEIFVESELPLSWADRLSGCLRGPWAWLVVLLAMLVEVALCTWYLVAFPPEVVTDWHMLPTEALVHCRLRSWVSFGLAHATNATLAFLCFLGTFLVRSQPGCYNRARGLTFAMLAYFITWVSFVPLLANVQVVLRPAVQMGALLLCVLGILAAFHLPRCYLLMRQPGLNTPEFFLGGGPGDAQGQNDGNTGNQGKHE
T1 sequence (Q8TE23 20-839): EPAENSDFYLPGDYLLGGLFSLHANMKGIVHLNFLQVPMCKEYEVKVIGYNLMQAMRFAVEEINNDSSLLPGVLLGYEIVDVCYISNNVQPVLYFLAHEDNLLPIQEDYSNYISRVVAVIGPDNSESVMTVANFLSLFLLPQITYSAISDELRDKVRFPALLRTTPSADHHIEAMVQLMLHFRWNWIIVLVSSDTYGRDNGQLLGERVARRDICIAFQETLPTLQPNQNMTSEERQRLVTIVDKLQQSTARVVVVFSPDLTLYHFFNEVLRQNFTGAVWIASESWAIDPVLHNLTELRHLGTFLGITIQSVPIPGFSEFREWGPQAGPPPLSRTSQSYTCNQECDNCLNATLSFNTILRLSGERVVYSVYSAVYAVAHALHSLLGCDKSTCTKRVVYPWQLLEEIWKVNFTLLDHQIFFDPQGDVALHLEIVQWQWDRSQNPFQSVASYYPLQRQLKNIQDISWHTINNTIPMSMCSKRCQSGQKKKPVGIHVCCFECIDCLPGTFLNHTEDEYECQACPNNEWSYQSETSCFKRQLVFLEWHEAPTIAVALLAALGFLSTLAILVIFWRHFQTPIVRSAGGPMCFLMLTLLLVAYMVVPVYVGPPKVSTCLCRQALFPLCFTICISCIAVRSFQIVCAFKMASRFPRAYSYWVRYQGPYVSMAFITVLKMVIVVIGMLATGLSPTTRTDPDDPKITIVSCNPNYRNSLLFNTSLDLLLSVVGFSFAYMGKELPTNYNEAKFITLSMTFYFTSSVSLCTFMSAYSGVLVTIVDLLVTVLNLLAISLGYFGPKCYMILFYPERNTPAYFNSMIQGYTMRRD
Kind of assay: Calcium response (FLIPR), hTAS1R3 mutant coexpressed with hTAS1R2. Format: cell-based. The conditions noted are these: variant T724L^5.37; for Emax: read-out: maximal signal (% of wt). The essentials: (§1)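 Each mutant receptor pair was expressed transiently in G16Gust44-expressing HEK293T cells; stimuli dissolved in C1 solution triggered calcium responses, recorded by fluorometric imaging and scaled to baseline fluorescence (ΔF/F) after mock correction, from at least three experiments run in duplicate.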

In assay [2] the target is T2, hTAS1R2 + hTAS1R3 F624L^2.61 (Homo sapiens, UniProt Q7RTX0+Q8TE23, F624L).
T2 construct: expressed in transfected cells; host or cells: HEK293T cells stably expressing G16Gust44
T2 sequence (Q8TE23 20-839): T1 sequence (Q8TE23 20-839)
T2 sequence (Q7RTX0 21-852 F624L): T1 sequence (Q7RTX0 21-852 T724L) with F604L, L704T
The assay is described as above. The assay is classed as cell-based. The conditions noted are these: variant F624L^2.61; for EC50: (>) EC50 not calculable because saturation is not reached; for Emax: read-out: maximal signal (% of wt). The essentials: as §1

Changes are numbered by the printed parent chain. Where a SMILES comes first, the peptide text is derived from it.

In general, EC50 refers to the concentration needed to bring the measured effect to its halfway point. As for `COc1ccc(CCC(=O)c2c(O)cc(O[C@@H]3O[C@H](CO)[C@@H](O)[C@H](O)[C@H]3O[C@@H]3O[C@@H](C)[C@H](O)[C@@H](O)[C@H]3O)cc2O)cc1O` [NHDC, neohesperidin dihydrochalcone], the concentration for a half-maximal effect (EC50) in assay [1] is 500 ± 300 µM; in assay [2], more than 1000 µM. Moreover, the Emax in assay [1] was found to be 58 ± 60%; in assay [2], 35 ± 70%.
Take `COC(=O)[C@H](Cc1ccccc1)NC(=O)[C@@H](N)CC(=O)O` [aspartame] (HELM PEPTIDE1{D.F.[CO[*:1]]}$$$$V2.0): in assay [1], the EC50 amounted to 1500 ± 200 µM and the Emax was found to be 69 ± 2%. In addition, in assay [2], the concentration for a half-maximal effect (EC50) is 1400 ± 200 µM and the Emax is 21 ± 4%.
